Drawing on US9751888B2, “Heterocyclic compounds and uses thereof” (Infinity Pharmaceuticals, Inc., priority 2013, dated 2017), this text covers IC50 for twelve molecules.

Assay [1] deals with human Class I PI3 kinase γ (Homo sapiens (Human), UniProt P48736). Put plainly: PI3-Kinase Promega ADP-Glo Max assay, γ isoform. It is filed as biochemical. The note with it: 40 nM kinase, 3 mM ATP, 500 uM diC8-PtdInsP; read-out: Promega γ PI3K IC50. Here is the method:
Promega ADP-Glo Max assay kit (Cat. No. V7002) was utilized to determine IC50 values for α, β, δ and γ isoforms of human Class I PI3 kinases (Millipore). Samples of kinase (20 nM α or δ, 40 nM β or γ isoform) were incubated with compound for 15 minutes at room temperature in reaction buffer (15 mM HEPES pH 7.4, 20 mM NaCl, 1 mM EGTA, 0.02% Tween 20, 10 mM MgCl2, 0.2 mg/mL bovine-γ-globulins) followed by addition of ATP/diC8-PtdInsP mixture to give final concentrations of 3 mM ATP and 500 uM diC8-PtdInsP. Reactions were incubated at room temperature for 2 hours followed by addition of 25 uL of stop solution. After a 40-minute incubation at room temperature, 50 uL of Promega detection mix was added followed by incubation for 1 hour at room temperature. Plates were then read on Envision plate reader in luminescence mode. Data was converted to % inhibition using the following equation below:
[formula] where S is the sample luminescence, Pos is a positive control without added PI3K, Neg is the negative control without added compound. Data was then plotted as % inhibition vs compound concentration.
Certain compounds provided herein were tested in PI3-Kinase Promega Assay using procedures as described above to determine IC50 values for α, β, δ and/or γ isoforms.
In general terms: In ADP-Glo the light output rises with the ADP produced.

The target of assay [2] is human Class I PI3 kinase β (Homo sapiens (Human), UniProt P42338). Put plainly: PI3-Kinase Promega ADP-Glo Max assay, β isoform. It is filed as biochemical. The note with it: 40 nM kinase, 3 mM ATP, 500 uM diC8-PtdInsP; read-out: Promega β PI3K IC50.
Assay [3] addresses human Class I PI3 kinase α (Homo sapiens (Human), UniProt P42336). Description: PI3-Kinase Promega ADP-Glo Max assay, α isoform. It is filed as biochemical. The note with it: 20 nM kinase, 3 mM ATP, 500 uM diC8-PtdInsP; read-out: Promega α PI3K IC50.
Method: (§1) Promega ADP-Glo Max assay kit (Cat. No. V7002) was utilized to determine IC50 values for α, β, δ and γ isoforms of human Class I PI3 kinases (Millipore). […] Reactions were incubated at room temperature for 2 hours followed by addition of 25 uL of stop solution. After a 40-minute incubation at room temperature, 50 uL of Promega detection mix was added followed by incubation for 1 hour at room temperature. Plates were then read on Envision plate reader in luminescence mode. Data was converted to % inhibition using the following equation below: [formula] where S is the sample luminescence, Pos is a positive control without added PI3K, Neg is the negative control without added compound. Data was then plotted as % inhibition vs compound concentration.
The target in assay [4] is human Class I PI3 kinase δ (Homo sapiens (Human), UniProt O00329). Put plainly: PI3-Kinase Promega ADP-Glo Max assay, δ isoform. In kind it is biochemical. The note with it: 20 nM kinase, 3 mM ATP, 500 uM diC8-PtdInsP; read-out: Promega δ PI3K IC50.
Method: as §1
The target of assay [5] is p110 γ (RAW264.7 cells) (Mus musculus (Mouse), UniProt Q9JHG7). Description: PI3K-γ selective cellular assay: phospho-AKT in C5a stimulated RAW264.7 macrophages. It is filed as cell-based. The note with it: serum-starved RAW264.7 cells stimulated with C5a. Here is the method:
Certain compounds provided herein were tested in RAW 264.7 cell model using procedures as described above.

Assay [6] has as its target p110 δ (RAJI cells) (Homo sapiens (Human), UniProt O00329). Description: PI3K-δ selective cellular assay: phospho-AKT in anti-human IgM stimulated RAJI cells. In kind it is cell-based. To be noted: serum-starved RAJI cells stimulated with anti-human IgM. From the text:
A compound's ability in selectively inhibiting PI3K-δ can be assessed using RAJI cells, i.e., B lymphocyte cells derived from lymphoma patients. Briefly, serum-starved RAJI cells are stimulated with anti-human IgM, thereby causing signaling through the B-cell receptors, as described in, for example, He et al., Leukemia Research (2009) 33: 798-802. B-cell receptor signaling is important for the activation, differentiation, and survival of B cells and certain B-cell derived cancers. Reduction of phospho-AKT is indicative of compounds that may inhibit B-cell proliferation and function in certain diseases. […] Certain compounds provided herein were tested in RAJI cell model using procedures as described above.

Chain of human Class I PI3 kinase δ (O00329 whole entry, canonical isoform): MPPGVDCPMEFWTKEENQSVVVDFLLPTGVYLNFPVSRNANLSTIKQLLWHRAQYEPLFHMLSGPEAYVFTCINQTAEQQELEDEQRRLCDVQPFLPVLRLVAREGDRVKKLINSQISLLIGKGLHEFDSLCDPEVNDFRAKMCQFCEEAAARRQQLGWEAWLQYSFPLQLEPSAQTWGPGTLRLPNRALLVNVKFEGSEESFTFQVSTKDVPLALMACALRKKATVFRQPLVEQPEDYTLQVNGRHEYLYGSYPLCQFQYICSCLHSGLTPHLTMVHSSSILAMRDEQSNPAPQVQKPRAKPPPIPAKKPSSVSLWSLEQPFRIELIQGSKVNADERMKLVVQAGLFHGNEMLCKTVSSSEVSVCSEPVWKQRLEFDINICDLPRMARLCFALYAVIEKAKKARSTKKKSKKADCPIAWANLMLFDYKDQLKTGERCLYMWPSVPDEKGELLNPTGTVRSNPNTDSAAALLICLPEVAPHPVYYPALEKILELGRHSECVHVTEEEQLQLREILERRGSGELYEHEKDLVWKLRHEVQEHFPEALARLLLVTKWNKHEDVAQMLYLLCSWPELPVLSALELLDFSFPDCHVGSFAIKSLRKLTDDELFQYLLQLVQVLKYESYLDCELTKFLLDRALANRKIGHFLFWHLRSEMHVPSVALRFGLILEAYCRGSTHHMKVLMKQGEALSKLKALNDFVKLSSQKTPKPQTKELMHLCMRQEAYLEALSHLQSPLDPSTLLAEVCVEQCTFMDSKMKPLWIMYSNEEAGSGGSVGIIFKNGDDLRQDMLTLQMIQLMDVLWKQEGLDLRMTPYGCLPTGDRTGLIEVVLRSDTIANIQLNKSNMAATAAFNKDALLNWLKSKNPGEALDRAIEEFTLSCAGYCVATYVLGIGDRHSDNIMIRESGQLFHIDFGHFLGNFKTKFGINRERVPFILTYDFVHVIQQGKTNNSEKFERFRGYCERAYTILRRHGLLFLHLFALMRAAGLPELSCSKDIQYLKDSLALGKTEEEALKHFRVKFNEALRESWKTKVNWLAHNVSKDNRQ
Chain of human Class I PI3 kinase δ (P27986 whole entry partner, canonical isoform): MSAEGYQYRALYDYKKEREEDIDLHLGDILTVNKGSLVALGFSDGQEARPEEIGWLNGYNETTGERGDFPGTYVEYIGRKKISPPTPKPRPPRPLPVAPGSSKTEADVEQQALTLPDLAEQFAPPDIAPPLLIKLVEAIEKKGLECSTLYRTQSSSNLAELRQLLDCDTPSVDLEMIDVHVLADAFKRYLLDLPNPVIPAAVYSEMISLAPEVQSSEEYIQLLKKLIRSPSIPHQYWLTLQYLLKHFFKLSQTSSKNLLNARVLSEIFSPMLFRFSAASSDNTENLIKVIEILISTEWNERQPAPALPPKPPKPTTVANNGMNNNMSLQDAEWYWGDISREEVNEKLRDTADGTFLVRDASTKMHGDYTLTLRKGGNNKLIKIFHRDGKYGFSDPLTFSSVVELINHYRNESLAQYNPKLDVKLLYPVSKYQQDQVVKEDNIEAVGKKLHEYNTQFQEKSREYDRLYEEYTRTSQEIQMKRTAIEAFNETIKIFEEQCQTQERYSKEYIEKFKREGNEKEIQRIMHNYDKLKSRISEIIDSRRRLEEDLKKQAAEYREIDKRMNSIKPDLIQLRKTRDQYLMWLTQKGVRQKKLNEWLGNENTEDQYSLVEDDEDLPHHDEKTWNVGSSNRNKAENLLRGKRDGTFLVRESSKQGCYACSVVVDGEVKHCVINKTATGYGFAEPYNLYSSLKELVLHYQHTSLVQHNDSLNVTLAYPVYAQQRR
Chain of p110 δ (RAJI cells) (O00329 whole entry): as the sequence (O00329 whole entry, canonical isoform) above
Chain of p110 δ (RAJI cells) (P27986 whole entry partner): as the sequence (P27986 whole entry partner, canonical isoform) above
Chain of human Class I PI3 kinase α (P42336 whole entry, canonical isoform): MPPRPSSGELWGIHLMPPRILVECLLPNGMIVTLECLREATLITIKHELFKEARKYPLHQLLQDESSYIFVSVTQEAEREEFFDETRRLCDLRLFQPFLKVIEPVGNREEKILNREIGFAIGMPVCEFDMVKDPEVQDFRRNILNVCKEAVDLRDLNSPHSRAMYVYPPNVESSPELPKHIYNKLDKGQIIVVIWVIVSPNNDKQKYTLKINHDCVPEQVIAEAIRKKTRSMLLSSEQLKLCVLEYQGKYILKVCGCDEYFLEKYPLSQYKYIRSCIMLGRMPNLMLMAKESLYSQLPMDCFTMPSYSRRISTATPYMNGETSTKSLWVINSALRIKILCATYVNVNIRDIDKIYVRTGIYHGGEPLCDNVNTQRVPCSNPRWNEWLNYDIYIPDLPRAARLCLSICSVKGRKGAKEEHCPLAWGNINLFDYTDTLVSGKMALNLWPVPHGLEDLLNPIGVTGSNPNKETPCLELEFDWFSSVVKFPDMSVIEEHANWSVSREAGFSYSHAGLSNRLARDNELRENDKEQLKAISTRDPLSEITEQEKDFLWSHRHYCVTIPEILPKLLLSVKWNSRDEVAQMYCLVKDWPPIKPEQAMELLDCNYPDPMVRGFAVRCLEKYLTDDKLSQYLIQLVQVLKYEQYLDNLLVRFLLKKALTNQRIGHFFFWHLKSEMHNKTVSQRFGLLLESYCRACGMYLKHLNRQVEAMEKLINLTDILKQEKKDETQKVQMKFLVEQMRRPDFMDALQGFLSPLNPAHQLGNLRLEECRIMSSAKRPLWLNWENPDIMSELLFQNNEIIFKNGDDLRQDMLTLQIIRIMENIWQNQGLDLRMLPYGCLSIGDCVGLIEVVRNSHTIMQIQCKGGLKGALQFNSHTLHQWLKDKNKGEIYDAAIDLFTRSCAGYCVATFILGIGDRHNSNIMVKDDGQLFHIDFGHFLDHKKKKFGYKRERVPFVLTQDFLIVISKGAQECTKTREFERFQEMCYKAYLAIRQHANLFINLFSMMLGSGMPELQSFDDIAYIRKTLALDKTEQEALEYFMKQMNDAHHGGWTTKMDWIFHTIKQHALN
Chain of human Class I PI3 kinase α (P27986 whole entry partner, canonical isoform): as the sequence (P27986 whole entry partner, canonical isoform) above
Chain of human Class I PI3 kinase γ (P48736 whole entry, canonical isoform): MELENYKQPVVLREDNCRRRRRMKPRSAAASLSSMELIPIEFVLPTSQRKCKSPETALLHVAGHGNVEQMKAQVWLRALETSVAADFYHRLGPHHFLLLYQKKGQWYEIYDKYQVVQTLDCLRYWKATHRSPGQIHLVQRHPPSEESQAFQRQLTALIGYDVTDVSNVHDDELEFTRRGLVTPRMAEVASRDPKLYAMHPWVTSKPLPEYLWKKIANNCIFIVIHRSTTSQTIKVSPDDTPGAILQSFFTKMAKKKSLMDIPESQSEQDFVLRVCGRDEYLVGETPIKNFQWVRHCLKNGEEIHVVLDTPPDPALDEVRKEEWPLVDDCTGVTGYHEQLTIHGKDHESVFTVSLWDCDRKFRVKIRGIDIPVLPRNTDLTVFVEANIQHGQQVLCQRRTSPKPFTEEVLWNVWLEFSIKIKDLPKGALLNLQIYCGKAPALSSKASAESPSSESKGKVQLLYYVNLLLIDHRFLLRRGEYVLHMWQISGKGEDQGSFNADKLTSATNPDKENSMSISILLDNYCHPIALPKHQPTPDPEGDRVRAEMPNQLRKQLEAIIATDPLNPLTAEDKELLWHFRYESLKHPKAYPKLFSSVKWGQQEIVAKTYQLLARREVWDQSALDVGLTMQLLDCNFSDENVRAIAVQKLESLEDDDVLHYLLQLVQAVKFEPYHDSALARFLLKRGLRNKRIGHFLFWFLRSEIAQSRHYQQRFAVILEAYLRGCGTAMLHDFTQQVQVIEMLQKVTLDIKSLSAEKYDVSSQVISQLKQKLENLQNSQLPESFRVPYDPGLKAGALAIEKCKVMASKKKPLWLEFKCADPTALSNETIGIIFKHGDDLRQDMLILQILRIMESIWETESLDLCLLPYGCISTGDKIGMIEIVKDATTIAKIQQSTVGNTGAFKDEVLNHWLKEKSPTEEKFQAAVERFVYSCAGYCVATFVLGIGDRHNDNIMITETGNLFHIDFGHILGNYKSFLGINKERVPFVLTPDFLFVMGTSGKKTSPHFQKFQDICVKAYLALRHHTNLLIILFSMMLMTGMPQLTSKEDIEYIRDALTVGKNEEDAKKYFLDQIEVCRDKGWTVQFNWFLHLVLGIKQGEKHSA

`C[C@H](NC(=O)c1nc(C2CC2)cnc1N)c1cc2cccc(Cl)c2c(=O)n1-c1ccccc1` [Compound 3]: the IC50 in assay [1], in assay [2], in assay [3] and in assay [4] was 1000 to 10000 nM throughout.

For the molecule `CCn1cc(-c2cccc3cc([C@H](C)NC(=O)c4c(N)nn5cccnc45)n(-c4ccccc4)c(=O)c23)cn1` [Compound 5], the IC50 (in general, the midpoint of a concentration-inhibition curve) was in the range of 100 to 500 nM in assay [1]; 10 to 100 nM in assay [5]; 100 to 500 nM in assay [6]; 1000 to 10000 nM in assay [2]; 1000 to 10000 nM in assay [3]; 1000 to 10000 nM in assay [4].

Take `C[C@H](NC(=O)c1c(N)nn2cccnc12)c1cc2cccc(Cl)c2c(=O)n1CCNS(C)(=O)=O` [Compound 13]: the IC50 in assay [1] was 10 to 100 nM; in assay [5] it was 100 to 500 nM; in assay [6], 10 to 100 nM; in assay [2] it was 500 to 1000 nM; in assay [3] it was 1000 to 10000 nM; in assay [4] it was 1000 to 10000 nM.

For the molecule `C[C@H](NC(=O)c1c(N)nn2cccnc12)c1cc2cccc(Cl)c2c(=O)n1CCc1ccccc1` [Compound 15], the IC50 in assay [1] lay in the range of 1000 to 10000 nM; in assay [5] it was 100 to 500 nM; in assay [6], 10 to 100 nM; in assay [2], 1000 to 10000 nM; in assay [3] it was 1000 to 10000 nM; in assay [4], 1000 to 10000 nM.

Consider `C[C@H](NC(=O)c1c(N)nn2cccnc12)c1cc2cccc(Cl)c2c(=O)n1CCc1nnn[nH]1` [Compound 16], for which the IC50 in assay [1] lay within 10 to 100 nM; in assay [5], 500 to 1000 nM; in assay [6], 1000 to 10000 nM; in assay [2] it was 1000 to 10000 nM; in assay [3] it was 1000 to 10000 nM; in assay [4], 1000 to 10000 nM.

With `C[C@H](NC(=O)c1c(N)nn2cccnc12)c1cc2cccc(Cl)c2c(=O)n1Cc1nnn[nH]1` [Compound 17], the IC50 fell in the range of 100 to 500 nM in assay [1]; 500 to 1000 nM in assay [5]; 1000 to 10000 nM in assay [6]; 1000 to 10000 nM in assay [2]; 1000 to 10000 nM in assay [3]; 1000 to 10000 nM in assay [4].

Take `Cc1noc(CCn2c([C@H](C)NC(=O)c3c(N)nn4cccnc34)cc3cccc(Cl)c3c2=O)n1` [Compound 18]: the IC50 was 1000 to 10000 nM in assay [1]; 100 to 500 nM in assay [5]; 10 to 100 nM in assay [6]; 1000 to 10000 nM in assay [2]; 1000 to 10000 nM in assay [3]; 1000 to 10000 nM in assay [4].

For `C[C@H](NC(=O)c1c(N)nn2cccnc12)c1cc2cccc(Cl)c2c(=O)n1CCS(N)(=O)=O` [Compound 19], the IC50 in assay [1] was 10 to 100 nM; in assay [5], 10 to 100 nM; in assay [6], 10 to 100 nM; in assay [2] it was 100 to 500 nM; in assay [3], 1000 to 10000 nM; in assay [4] it was 1000 to 10000 nM.

As to `C[C@H](NC(=O)c1c(N)nn2cccnc12)c1cc2cccc(Cl)c2c(=O)n1CCc1ncn[nH]1` [Compound 20], the IC50 in assay [1] lay in the range of 500 to 1000 nM; in assay [5], 1000 to 10000 nM; in assay [6], 10 to 100 nM; in assay [2], 500 to 1000 nM; in assay [3], 1000 to 10000 nM; in assay [4], 1000 to 10000 nM.

With `C[C@H](NC(=O)c1c(N)nn2cccnc12)c1cc2cccc(Cl)c2c(=O)n1CCc1c[nH]cn1` [Compound 21], the IC50 in assay [1] fell in the range of 1000 to 10000 nM; in assay [2], 100 to 500 nM; in assay [3], 1000 to 10000 nM; in assay [4], 1000 to 10000 nM.

On to `C[C@H](NC(=O)c1c(N)ncn2ccnc12)c1cc2cccc(Cl)c2c(=O)n1-c1ccccc1` [Compound 43], for which the 50% inhibitory concentration (IC50) was in the range of 10 to 100 nM in assay [1]; 1 to 10 nM in assay [5]; 1 to 10 nM in assay [6]; 1000 to 10000 nM in assay [2]; 1000 to 10000 nM in assay [3]; 100 to 500 nM in assay [4].

On to `C[C@H](NC(=O)c1c(N)nn2cccnc12)c1nc2cccc(Cl)c2c(=O)n1-c1ccc(F)cc1` [Compound 45], for which the IC50 fell in the range of 10 to 100 nM in assay [1]; 1 to 10 nM in assay [5]; 10 to 100 nM in assay [6]; 1000 to 10000 nM in assay [2]; 1000 to 10000 nM in assay [3]; 1000 to 10000 nM in assay [4].
